Measurements from US9250231B2, “Method for selecting mevalonate synthesis modulators using cells derived from human pluripotent cells” (Centre d'Etude des Cellules Souches, priority 2010, dated 2016).

What was measured:
[1] = tested on: SSEA4; assay: Flow cytometry of SSEA4 on MSC type cells derived from hES SA01; type: cell-based, human; details: added to control FCS20%; FGF2 10 ng/ml, AA2P 1 mM; control 7
Protocol: (§1) The role of FGF2 and of ascorbic acid 2-phosphate on the growth capacities of the isolated cells according to the method of the invention was analyzed on cells derived from human embryonic stem cells SA01. The cells are cultivated in the presence of 20% fetal calf serum (control condition) and in the presence or in the absence of FGF2 and of ascorbic acid 2-phosphate (AA2P).
The presence of SSEA4 on cells cultivated under these different conditions were analyzed by flow cytometry by using a specific antibody directed against SSEA4.

[2] = tested on: cells derived from human embryonic stem cells SA01; assay: Growth capacity (maximum number of cells before senescence) of MSC type cells cultivated with or without FGF2 and AA2P; type: cell-based; details: versus control FCS20%
Protocol: as §1

[3] = tested on: <<MSC>> SA01 cells derived from hES cells (SA01); assay: Comparative toxicity of statins in 384-well plates, Cell Titer Glow, with and without mevalonate; type: cell-based, human; details: for cell viability as percentage of the result without any treatment, With Mevalonate / cell viability as percentage of the result without any treatment, Without Mevalonate: human, 72 h
Protocol: For this experiment, the differentiated <<MSC>> SA01 cells derived from hES cells (SA01) were tested in 384-well plates by using a distribution robot and cell viability was measured by Cell Titer Glow after 72 hours of cultivation.

[4] = tested on: <<MSC>> WT cells derived from hES cells; assay: Toxicity of simvastatin in 384-well multiwells, Cell Titer Glow; type: cell-based, human; details: 72 hours, 20% fetal calf serum, 2,000 cells per well, DMSO 0.2% 987206
Description: Determination of the number of cells by the ATP amount is therefore possible. This approach allows automated readout of the number of cells. Similar results are obtained by using traces of mitochondrial activity. Differentiated cells of the MSC type, derived from hES cells, <<MSC>> WT, were sown on 384 multiwells gelatinized beforehand by using a distribution robot of the Bravo type, at the concentration of 2,000 cells per well.

[5] = tested on: MSC cells derived from hES human cells SA01; assay: Prestwick bank screening with and without mevalonate, Cell Titer Glow; type: cell-based; details: 2.5 μM, 72 h, mevalonate 2 mM, 96 wells, 20% fetal calf serum

Row | Compound | Average fluorescence intensity (SSEA4) [1] | increase of the amount of accumulated maximum cells [2] | cell viability as percentage of the result without any treatment, With Mevalonate [3] | cell viability as percentage of the result without any treatment, Without Mevalonate [3] | also measured
1 | O=C1O[C@H]([C@@H](O)CO)C(O)=C1OP(=O)(O)O [AA2P, Ascorbic Acid 2-Phosphate] | 7 | less than 6 log factor |  |  | 
2 | CC(C)n1c(/C=C/C(O)CC(O)CC(=O)O)c(-c2ccc(F)cc2)c2ccccc21 (centres unmarked) [Fluvostatin] |  |  | 104% | 32.8% | comparative toxicity of statins [3]: more toxic than simvastatin
3 | CCC(C)(C)C(=O)O[C@H]1C[C@@H](C)C=C2C=C[C@H](C)[C@H](CC[C@@H]3C[C@@H](O)CC(=O)O3)[C@H]21 [Simvastatin] |  |  | 98.3% | 48.7% | amount of cells by Cell Titer Glow, Statin 2 μM [4]: 474583
4 | FGF2: growth factor from the FGF family added to the culture medium | 10 | less than 5 log factor |  |  | 
5 | Mevinolin |  |  |  |  | selected in screening 1 (toxicity of more than 35% in the absence, less than 20% in the presence of mevalonate) [5]: isolated
